Measured values reported in US12415786B2, “Substituted 2-heteroarylaminobenzenes and the salts thereof and their use as herbicidal agents” (Bayer Aktiengesellschaft, priority 2019, dated 2025).

Tests used:
Assay type in all cases: in vivo
Agrostis tenuis = assay: Herbicidal early post-emergence action (96-well microtiter plates), AGSTE; settings: 1900 g/ha, scored 9 to 12 days after treatment, 100% = plants have died, 0% = like untreated control plants
How it was run: (§1)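 Weed seeds grown in quartz sand in 96-well microtiter plates in a climate chamber and treated at the cotyledon stage, 5 to 7 days after sowing, with EC formulations at 2200 L/ha water and a rate equivalent to 1900 g/ha. Visual scoring after 9 to 12 days against untreated controls (0% = control, 100% = dead).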

Poa annua [1] = assay: Herbicidal early post-emergence action (96-well microtiter plates), POAAN; settings: 1900 g/ha, scored 9 to 12 days after treatment, 100% = plants have died, 0% = like untreated control plants
How it was run: as §1

Matricaria inodora [2] = assay: Herbicidal post-emergence action (greenhouse pots), MATIN; settings: 1280 g/ha, visual rating about 3 weeks after treatment vs untreated controls
From the text: (§2) In the examples and tables below, the following abbreviations are used: • Undesired Plants/Weeds: • ABUTH: Abutilon theophrasti • AGSTE: Agrostis tenuis • AMARE Amaranthus retroflexus • ECHCG: Echinochloa crus-galli • LOLRI: Lolium rigidum • MATIN: Matricaria inodora • POAAN: Poa annua • SETVI: Setaria viridis • STEME: Stellaria media A. Herbicidal Early Post-Emergence Action Seeds of mono- and dicotyledonous weed plants were placed in plastic pots in sandy loam soil (doubly sown with in each case one species of mono- or dicotyledonous weed plants per pot), covered with soil and cultivated in a greenhouse under controlled growth conditions. 2 to 3 weeks after sowing, the test plants were treated at the one-leaf stage. The compounds of the invention, formulated in the form of wettable powders (WP) or as emulsion concentrates (EC), were applied onto the green parts of the plants as aqueous suspension or emulsion with addition of 0.5% additive at a water application rate of 600 liters per hectare (converted). After the test plants had been kept in the greenhouse under optimum growth conditions for about 3 weeks, the activity of the preparations was rated visually in comparison to untreated controls. For example, 100% activity=the plants have died, 0% activity=like untreated control plants. Tables B1-B8 below show the effects of selected compounds of the general formula (I) according to Table 1 above on various harmful plants and an application rate corresponding to 1280 g/ha, which were obtained by the experimental procedure mentioned above.

Stellaria media [3] = assay: Herbicidal post-emergence action (greenhouse pots), STEME; settings: 1280 g/ha, visual rating about 3 weeks after treatment vs untreated controls
How it was run: (§3)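 Weeds sown in sandy loam in greenhouse pots were sprayed at the one-leaf stage, 2 to 3 weeks after sowing, with WP or EC formulations in water plus 0.5% additive at 600 L/ha, at a rate corresponding to 1280 g/ha. Damage was rated visually about 3 weeks later versus untreated controls (0% none, 100% dead).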

Stellaria media [4] = assay: Herbicidal pre-emergence action (greenhouse pots), STEME; settings: 1280 g/ha, visual scoring after about 3 weeks vs untreated controls
How it was run: (§4)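 Weed seeds were sown in sandy loam and covered with soil. Compounds formulated as WP or EC were applied to the covering soil surface as aqueous suspension or emulsion with 0.5% additive at 600 L/ha water, 1280 g/ha. After about 3 weeks in the greenhouse, damage was scored visually as % versus untreated controls.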

Poa annua [5] = assay: Herbicidal post-emergence action (greenhouse pots), POAAN; settings: 1280 g/ha, visual rating about 3 weeks after treatment vs untreated controls
How it was run: as §3

Echinochloa crus-galli [6] = assay: Herbicidal post-emergence action (greenhouse pots), ECHCG; settings: 1280 g/ha, rated after about 3 weeks, 100% = plants have died, 0% = like untreated control plants
How it was run: as §3

Abutilon theophrasti [7] = assay: Herbicidal post-emergence action (greenhouse pots), ABUTH; settings: 1280 g/ha, visual rating about 3 weeks after treatment vs untreated controls
How it was run: as §3

Amaranthus retroflexus [8] = assay: Herbicidal post-emergence action (greenhouse pots), AMARE; settings: 1280 g/ha, visual rating about 3 weeks after treatment vs untreated controls
How it was run: as §3

Echinochloa crus-galli [9] = assay: Herbicidal pre-emergence action (greenhouse pots), ECHCG; settings: 1280 g/ha, visual scoring after about 3 weeks vs untreated controls
How it was run: as §4

Poa annua [10] = assay: Herbicidal pre-emergence action (greenhouse pots), POAAN; settings: 1280 g/ha, visual scoring after about 3 weeks vs untreated controls
How it was run: as §4

Setaria viridis [11] = assay: Herbicidal pre-emergence action (greenhouse pots), SETVI; settings: 1280 g/ha, visual scoring after about 3 weeks vs untreated controls
How it was run: as §4

Amaranthus retroflexus [12] = assay: Herbicidal pre-emergence action (greenhouse pots), AMARE; settings: 1280 g/ha, visual scoring after about 3 weeks vs untreated controls
How it was run: as §4

Matricaria inodora [13] = assay: Herbicidal pre-emergence action (greenhouse pots), MATIN; settings: 1280 g/ha, visual scoring after about 3 weeks vs untreated controls
How it was run: as §4

Setaria viridis [14] = assay: Herbicidal post-emergence action (greenhouse pots), SETVI; settings: 1280 g/ha, rated after about 3 weeks, 100% = plants have died, 0% = like untreated control plants
From the text: as §2

Lolium rigidum = assay: Herbicidal pre-emergence action (greenhouse pots), LOLRI; settings: 1280 g/ha, visual scoring after about 3 weeks vs untreated controls
From the text: (§5) In the examples and tables below, the following abbreviations are used: • Undesired Plants/Weeds: • ABUTH: Abutilon theophrasti • AGSTE: Agrostis tenuis • AMARE Amaranthus retroflexus • ECHCG: Echinochloa crus-galli • LOLRI: Lolium rigidum • MATIN: Matricaria inodora • POAAN: Poa annua • SETVI: Setaria viridis • STEME: Stellaria media A. Herbicidal Early Post-Emergence Action Seeds of mono- and dicotyledonous weed plants were placed in plastic pots in sandy loam soil (doubly sown with one species each of mono- or dicotyledonous weed plants per pot) and covered with soil. The compounds of the invention, formulated in the form of wettable powders (WP) or as emulsion concentrates (EC), were then applied onto the surface of the covering soil as aqueous suspension or emulsion with addition of 0.5% additive at a water application rate of 600 liters per hectare (converted). After the treatment, the pots were placed in a greenhouse and kept under good growth conditions for the test plants. After about 3 weeks, the effect of the preparations was scored visually in comparison with untreated controls as percentages. For example, 100% activity=the plants have died, 0% activity=like untreated control plants. Tables C1-C8 below show the effects of selected compounds of the general formula (I) according to Table 1 above on various harmful plants and an application rate corresponding to 1280 g/ha, which were obtained by the experimental procedure mentioned above.

Abutilon theophrasti [15] = assay: Herbicidal pre-emergence action (greenhouse pots), ABUTH; settings: 1280 g/ha, visual scoring after about 3 weeks vs untreated controls
From the text: as §5

Row | SMILES | AGSTE (herbicidal activity, scored visually in comparison to untreated controls) (Agrostis tenuis) [%] | POAAN (herbicidal activity, scored visually in comparison to untreated controls) (Poa annua [1]) [%] | herbicidal activity MATIN (Matricaria inodora [2]) [%] | herbicidal activity STEME (Stellaria media [3]) [%] | herbicidal activity STEME (Stellaria media [4]) [%] | herbicidal activity POAAN (Poa annua [5]) [%] | ECHCG (herbicidal activity, rated visually in comparison to untreated controls) (Echinochloa crus-galli [6]) [%] | herbicidal activity ABUTH (Abutilon theophrasti [7]) [%] | herbicidal activity AMARE (Amaranthus retroflexus [8]) [%] | herbicidal activity ECHCG (Echinochloa crus-galli [9]) [%] | herbicidal activity POAAN (Poa annua [10]) [%] | herbicidal activity SETVI (Setaria viridis [11]) [%] | herbicidal activity AMARE (Amaranthus retroflexus [12]) [%] | herbicidal activity MATIN (Matricaria inodora [13]) [%] | SETVI (herbicidal activity, rated visually in comparison to untreated controls) (Setaria viridis [14]) [%] | herbicidal activity LOLRI (Lolium rigidum) [%] | herbicidal activity ABUTH (Abutilon theophrasti [15]) [%]
1 | Clc1cnc(Nc2ccccc2Oc2ccccc2)nc1 [Example 1-336] | 100 | 100 | 100 | 100 | 100 |  |  |  |  |  |  |  |  |  |  |  | 
2 | N#Cc1cccc(Nc2ncc(Cl)cc2F)c1Oc1ccc(F)cc1 [Example 1-139] | 100 | 80 | 100 |  |  | 100 |  |  |  |  |  |  |  |  |  |  | 
3 | N#Cc1cccc(Nc2ncc(F)cn2)c1Oc1ccc(F)c(F)c1F [Example 1-374] | 100 | 100 | 100 | 100 | 100 | 100 | 100 | 100 | 100 | 100 | 100 | 100 | 100 | 100 |  |  | 
4 | N#Cc1cccc(Nc2ncc([N+](=O)[O-])cn2)c1Oc1ccc(F)cc1 [Example 1-306] | 100 | 80 | 100 | 100 | 100 |  |  |  |  |  |  | 100 | 100 | 90 |  |  | 
5 | CCc1cnc(Nc2cccc(C#N)c2Oc2ccc(F)cc2)nc1 [Example 1-310] | 80 |  | 100 | 90 |  |  |  |  |  |  |  |  |  |  |  |  | 
6 | N#Cc1cccc(Nc2ncc(F)cn2)c1Oc1ccc(Cl)nc1 [Example 3-54] | 100 | 100 |  | 90 | 100 | 100 |  | 100 | 100 | 100 | 100 | 100 | 100 | 100 | 90 | 100 | 100
7 | N#Cc1cccc(Nc2ncc(F)cn2)c1Oc1cc(F)c(F)cc1F [Example 1-375] | 100 | 100 |  | 100 | 100 | 100 |  | 90 | 100 | 100 | 100 | 100 | 100 | 100 |  | 90 | 100
8 | N#Cc1cccc(Nc2ncc(F)cn2)c1Oc1ccc(Cl)cc1 [Example 1-269] | 80 | 100 |  | 100 | 100 | 90 | 90 | 90 | 100 | 90 | 100 | 100 | 100 | 100 | 90 | 90 | 90
9 | N#Cc1cccc(Nc2ncccn2)c1Oc1ccc(F)cc1 [Example 1-248] | 100 | 100 |  | 100 | 100 | 100 | 100 | 100 | 100 | 100 | 100 | 100 | 100 | 100 |  | 100 | 100
